# From ChEMBL document CHEMBL4342525, “Synthesis and Biochemical Evaluation of Noncyclic Nucleotide Exchange Proteins Directly Activated by cAMP 1 (EPAC1) Regulators” (J Med Chem, 2020)
# pEC50, pIC50: −log10 of the molar value. Calls of active or inactive are those of the source. The rule behind the calls is not given here.
# Key:
# [1] = target: T1, Rap guanine nucleotide exchange factor 3 (Homo sapiens) (UniProt O95398); assay: Binding affinity to GST-tagged recombinant EPAC1 CNBD (169 to 318 residues) (unknown origin) expressed in Escherichia coli BL21 Star (DE3) assessed as relative fluorescence intensity incubated for 4 hrs by 8-NBD-cAMP competition binding assay relative to control; parameters: concentration or dose not given beside the values
# T1 sequence (whole entry): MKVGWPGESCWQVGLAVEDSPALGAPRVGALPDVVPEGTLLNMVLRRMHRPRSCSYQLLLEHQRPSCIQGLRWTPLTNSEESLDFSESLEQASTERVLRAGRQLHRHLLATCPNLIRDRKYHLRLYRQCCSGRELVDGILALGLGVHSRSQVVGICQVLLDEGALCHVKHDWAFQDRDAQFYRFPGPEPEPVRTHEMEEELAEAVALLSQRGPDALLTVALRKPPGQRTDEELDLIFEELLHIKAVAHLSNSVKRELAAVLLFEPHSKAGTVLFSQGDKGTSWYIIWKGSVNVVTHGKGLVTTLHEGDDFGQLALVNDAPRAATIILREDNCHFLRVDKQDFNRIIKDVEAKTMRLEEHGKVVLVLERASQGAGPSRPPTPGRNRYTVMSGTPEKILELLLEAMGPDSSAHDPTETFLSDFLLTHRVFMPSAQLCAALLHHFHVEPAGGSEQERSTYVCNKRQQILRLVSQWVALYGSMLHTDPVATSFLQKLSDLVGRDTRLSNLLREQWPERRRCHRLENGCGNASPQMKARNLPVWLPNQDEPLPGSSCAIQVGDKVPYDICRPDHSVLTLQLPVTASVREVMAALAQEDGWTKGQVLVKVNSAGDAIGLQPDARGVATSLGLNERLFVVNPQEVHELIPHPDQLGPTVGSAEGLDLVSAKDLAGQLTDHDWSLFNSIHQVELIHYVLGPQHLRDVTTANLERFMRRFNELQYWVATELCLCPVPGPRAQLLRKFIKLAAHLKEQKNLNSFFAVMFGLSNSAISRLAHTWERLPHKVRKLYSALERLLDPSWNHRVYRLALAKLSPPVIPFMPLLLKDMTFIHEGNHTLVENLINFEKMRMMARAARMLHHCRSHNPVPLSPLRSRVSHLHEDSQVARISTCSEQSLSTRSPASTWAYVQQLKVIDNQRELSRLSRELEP
# [2] = target: T1, Rap guanine nucleotide exchange factor 3 (Homo sapiens); assay: Activation of recombinant EPAC1 (149 to 881 residues) (unknown origin) assessed as stimulation of dissociation of fluorescent MANT-GDP from recombinant Rap1b at 500 uM in presence of excess nonfluorescent nucleotides by fluorescence based in-vitro GEF assay relative to cAMP
# [3] = target: T1, Rap guanine nucleotide exchange factor 3 (Homo sapiens); assay: Activation of recombinant EPAC1 (149 to 881 residues) (unknown origin) assessed as stimulation of dissociation of fluorescent MANT-GDP from recombinant Rap1b at 10 uM in presence of excess nonfluorescent nucleotides by fluorescence based in-vitro GEF assay relative to cAMP
# [4] = Binding affinity to GST-tagged recombinant EPAC1 delta-DEP mutant (149 to 881 residues) (unknown origin) expressed in Escherichia coli BL21 Star (DE3) incubated for 4 hrs by 8-NBD-cAMP competition binding assay; parameters: species or system Homo sapiens
# [5] = Activation of PKA in human U2OS cells stably transfected with EPAC1 assessed as increase in VASP phosphorylation at 100 uM by Western blot analysis; type: cell-based
# [6] = target: T2, Rap guanine nucleotide exchange factor 3 (Homo sapiens, UniProt O95398); assay: Activation of recombinant EPAC1 (149 to 881 residues) (unknown origin) assessed as stimulation of dissociation of fluorescent MANT-GDP from recombinant Rap1b in presence of excess nonfluorescent nucleotides by fluorescence based in-vitro GEF assay
# T2 sequence (O95398 whole entry): T1 sequence (whole entry)
# [7] = target: T1, Rap guanine nucleotide exchange factor 3 (Homo sapiens); assay: Activation of EPAC1 (unknown origin) expressed in U2OS cells at 100 uM pre-incubated for 10 mins before 8-pCPT-2'-O-Me-cAMP stimulation for 10 mins using GST-RalGDS-RBD by Western blot analysis based active GTP-bound Rap1 pull down assay; type: cell-based
# [8] = target: T1, Rap guanine nucleotide exchange factor 3 (Homo sapiens); assay: Activation of EPAC1 (unknown origin) expressed in U2OS cells at 100 uM incubated for 10 mins using GST-RalGDS-RBD by Western blot analysis based active GTP-bound Rap1 pull down assay; type: cell-based
# [9] = target: T1, Rap guanine nucleotide exchange factor 3 (Homo sapiens); assay: Activity at recombinant EPAC1 (149 to 881 residues) (unknown origin) assessed as reduction in cAMP-induced stimulation of dissociation of fluorescent MANT-GDP from recombinant Rap1b at 500 uM in presence of excess nonfluorescent nucleotides by fluorescence based in-vitro GEF assay
# [10] = target: T1, Rap guanine nucleotide exchange factor 3 (Homo sapiens); assay: Activation of EPAC1 in HUVEC assessed as reduction in IL-6-promoted signaling by measuring ICAM1 protein expression at 100 uM pre-incubated for 30 mins before IL6 and sIL6Ralpha stimulation for 5 hrs by Western blotting analysis; type: cell-based
# [11] = target: T1, Rap guanine nucleotide exchange factor 3 (Homo sapiens); assay: Activation of EPAC1 in HUVEC assessed as reduction in IL-6-promoted signaling by measuring pAKT protein levels at 100 uM pre-incubated for 30 mins before IL6 and sIL6Ralpha stimulation for 5 hrs by Western blotting analysis; type: cell-based
# [12] = target: T1, Rap guanine nucleotide exchange factor 3 (Homo sapiens); assay: Activation of EPAC1 in HUVEC assessed as reduction in IL-6-promoted signaling by measuring pERK protein levels at 100 uM pre-incubated for 30 mins before IL6 and sIL6Ralpha stimulation for 5 hrs by Western blotting analysis; type: cell-based
# [13] = target: T1, Rap guanine nucleotide exchange factor 3 (Homo sapiens); assay: Activation of EPAC1 in HUVEC assessed as reduction in IL-6-promoted signaling by measuring SELE protein expression at 100 uM pre-incubated for 30 mins before IL6 and sIL6Ralpha stimulation for 5 hrs by Western blotting analysis; type: cell-based
# [14] = target: T1, Rap guanine nucleotide exchange factor 3 (Homo sapiens); assay: Activation of EPAC1 in HUVEC assessed as reduction in IL-6-promoted signaling by measuring pSTAT3 protein levels at 100 uM pre-incubated for 30 mins before IL6 and sIL6Ralpha stimulation for 5 hrs by Western blotting analysis; type: cell-based
# [15] = target: T1, Rap guanine nucleotide exchange factor 3 (Homo sapiens); assay: Activation of EPAC1 in HUVEC assessed as reduction in IL-6-promoted signaling by measuring VCAM1 protein expression at 100 uM pre-incubated for 30 mins before IL6 and sIL6Ralpha stimulation for 5 hrs by Western blotting analysis; type: cell-based
# [16] = target: T2, Rap guanine nucleotide exchange factor 3; assay: Binding affinity to GST-tagged recombinant EPAC1 CNBD (169 to 318 residues) (unknown origin) expressed in Escherichia coli BL21 Star (DE3) incubated for 4 hrs by 8-NBD-cAMP competition binding assay
Structure (SMILES),Activity [1],other results
COc1ccc2ccc(OCC(=O)NS(=O)(=O)c3ccc([N+](=O)[O-])cc3OC)cc2c1,24%,–
CC(=O)c1c(OCC(=O)NS(=O)(=O)c2c(C)cc(C)cc2C)ccc2ccccc12,104%,–
Cc1cc(C)c(S(=O)(=O)NC(=O)CSc2nc3ccccc3c(=O)[nH]2)c(C)c1,95%,–
Cc1ccc(S(=O)(=O)NC(=O)COc2ccc3cc(Cl)ccc3c2)c(C)c1,50%,–
O=C(COc1ccc2ccccc2c1)NS(=O)(=O)c1cccc([N+](=O)[O-])c1,67%,–
COC(=O)c1cccc(S(=O)(=O)NC(=O)COc2ccc3ccccc3c2)c1,71%,–
COc1ccc(S(=O)(=O)NC(=O)COc2ccc3ccccc3c2)c(OC)c1,23%,Activity [2]: 2%; Activity [3]: Active; pIC50 [4]: 5.31; Activity [5]: Not Active; pEC50 [6]: 5.30; Activity [7]: Active; Activity [8]: Active; Activity [9]: Active
Cc1ccc(S(=O)(=O)NC(=O)COc2ccc3cc(F)ccc3c2)c(C)c1,55%,–
Cc1cc(C)c(S(=O)(=O)NC(=O)C(F)Oc2ccc3ccccc3c2)c(C)c1 (stereo not given),82%,–
Nc1ccc(S(=O)(=O)NC(=O)COc2ccc3ccccc3c2)cc1F,inactive,Activity [10]: inactive; Activity [3]: Active; Activity [11]: inactive; Activity [12]: inactive; Activity [13]: inactive; Activity [5]: Not Active; Activity [8]: Active; Activity [14]: inactive; Activity [15]: inactive
O=C(COc1ccc2ccccc2c1)NS(=O)(=O)c1cccc(F)c1,82%,–
Cc1ccc(S(=O)(=O)NC(=O)C(C)(C)Oc2ccc3ccccc3c2)c(C)c1,76%,–
COc1ccc(OC)c(S(=O)(=O)NC(=O)COc2ccc3ccc(OC)cc3c2)c1,49%,–
Cc1cc(C)c(S(=O)(=O)NC(=O)CN2CCN(c3ccccn3)CC2)c(C)c1,119%,–
O=C(COc1ccc2ccccc2c1)NS(=O)(=O)c1cccc(-c2ccoc2)c1,53%,–
Cc1cc(C)c(S(=O)(=O)NC(=O)COc2cccc3ccccc23)c(C)c1,94%,–
COc1ccc2ccc(OCC(=O)NS(=O)(=O)c3cc(C)cc(Br)c3)cc2c1,29%,–
COc1ccc(S(=O)(=O)NC(=O)COc2ccc3ccccc3c2)cc1OC,50%,–
COc1ccc2ccc(OCC(=O)NS(=O)(=O)c3c(C)cc(C)cc3C)cc2c1,49%,–
COc1cccc(S(=O)(=O)NC(=O)COc2ccc3ccccc3c2)c1,33%,–
Cc1cc(C)cc(S(=O)(=O)NC(=O)COc2ccc3ccccc3c2)c1,38%,–
Cc1cc(C)c(S(=O)(=O)NC(=O)CN2CCn3c(nnc3C(F)(F)F)C2)c(C)c1,104%,–
Cc1cc(C)c(S(=O)(=O)NC(=O)COc2ccc3c(c2)CCCC3)c(C)c1,77%,–
Cc1cc(C)c(S(=O)(=O)NCCOc2ccc3ccccc3c2)c(C)c1,105%,–
COc1ccc2ccc(OCC(=O)NS(=O)(=O)c3cc(Cl)cc(Cl)c3)cc2c1,54%,–
Cc1cc(C)c(S(=O)(=O)NC(=O)COc2ccc3cccnc3c2)c(C)c1,92%,–
O=C(COc1ccc2ccccc2c1)NS(=O)(=O)C1CCCCC1,81%,–

Structure (SMILES),Activity [1],other results
O=C(COc1ccc2ccccc2c1)NS(=O)(=O)c1ccc(F)cc1,81%,–
Cc1cc(C)c(S(=O)(=O)NC(=O)CN2CCc3ccccc3C2)c(C)c1,102%,–
O=C(COc1ccc2ccccc2c1)NS(=O)(=O)c1ccccc1F,69%,–
Cc1cc(C)c(S(=O)(=O)NC(=O)CSc2ccc3ccccc3c2)c(C)c1,92%,–
Cc1ccc(S(=O)(=O)NC(=O)COc2ccc3ccc(Cl)cc3c2)c(C)c1,66%,–
Cc1cc(Nc2ccc(C(F)(F)F)cn2)cc(S(=O)(=O)NC(=O)COc2ccc3ccccc3c2)c1,20%,–
Cc1ccc(S(=O)(=O)NC(=O)COc2cccc3ccccc23)c(C)c1,71%,–
Cc1ccc(S(=O)(=O)NC(=O)COc2ccc3[nH]ncc3c2)c(C)c1,94%,–
O=C(COc1ccc2ccccc2c1)NS(=O)(=O)c1ccc([N+](=O)[O-])c(F)c1,81%,Activity [10]: inactive; Activity [3]: Active; Activity [11]: inactive; Activity [12]: inactive; Activity [13]: inactive; Activity [5]: Not Active; pIC50 [16]: 4.49; Activity [8]: Active; Activity [14]: inactive; Activity [15]: inactive
Cc1ccc(S(=O)(=O)NC(=O)COc2ccc3[nH]ccc3c2)c(C)c1,91%,–
Cc1cc(C)c(S(=O)(=O)NC(=O)CNc2cccc(Cl)c2)c(C)c1,88%,–
COc1ccc(OC)c(S(=O)(=O)NC(=O)COc2ccc3ccccc3c2)c1,72%,–
COc1ccc2ccc(OCC(=O)NS(=O)(=O)c3ccc(OC)c(OC)c3)cc2c1,23%,–
Cc1ccc(S(=O)(=O)NCCOc2ccc3ccccc3c2)c(C)c1,81%,–
Cc1cc(-c2cncc(F)c2)cc(S(=O)(=O)NC(=O)COc2ccc3ccccc3c2)c1,36%,–
O=C(COc1ccc2ccccc2c1)NS(=O)(=O)c1cccc(-c2ccccc2)c1,35%,–
Cc1cc(C)c(S(=O)(=O)NC(=O)COc2ccc3c(c2)NC(=O)CC3)c(C)c1,77%,–
Cc1cc(-c2ccnn2C)cc(S(=O)(=O)NC(=O)COc2ccc3ccccc3c2)c1,34%,–
Cc1cc(C)c(S(=O)(=O)N2CCC(Oc3ccc4ccccc4c3)CC2)c(C)c1,105%,–
Cc1cc(C)c(S(=O)(=O)NC(=O)COc2ccc3ccccc3c2)c(C)c1,81%,–
Cc1cc(-c2ccco2)cc(S(=O)(=O)NC(=O)COc2ccc3ccccc3c2)c1,40%,–
Cc1ccc(S(=O)(=O)NC(=O)COc2ccc3ccccc3c2)cc1,44%,–
Cc1cc(C)c(S(=O)(=O)NC(=O)CNc2ccc3ccccc3c2)c(C)c1,97%,–
O=C(COc1ccc2ccccc2c1)NS(=O)(=O)c1ccccc1,49%,–
COc1cc2c(cc1OC)CN(CC(=O)NS(=O)(=O)c1c(C)cc(C)cc1C)CC2,102%,–
Cc1cc(Br)cc(S(=O)(=O)NC(=O)COc2ccc3ccccc3c2)c1,58%,–
